What was measured:
[1] = target: voltage-gated potassium ion channel hERG (Homo sapiens (Human), UniProt Q12809); assay: hERG manual patch clamp in HEK293 cells; format: cell-based; settings: HEK293 cells stably expressing hERG
Method: HEK293 cell line stably expressing hERG ion channel (Cat. No. K1236) was purchased from Invitrogen. The cell line was cultured in the medium containing 85% DMEM, 10% dialysis fetal bovine serum, 0.1 mM non-essential amino acid solution, 100 U/mL penicillin-streptomycin solution, 25 mM HEPES, 5 µg/mL blasticidin and 400 µg/mL geneticin. When the cell density increased to 40%-80% of the bottom area of the culture dish, trypsin was used for digestion and passage, and the cells were passaged three times weekly. Before the experiment, the cells were cultured in a 6 cm culture dish at a density of 5 × 10^5 and induced by adding 1 µg/mL doxycycline for 48 hours, and then the cells were digested and inoculated on glass slides for subsequent manual patch clamp experiments.
1) According to the SOP-ADMET-MAN-007 standard operating procedure, the compounds to be tested were dissolved with DMSO and prepared into the stock solution with a final concentration of 10 mM. […]
10. Determination of the inhibitory effect of the compounds to be tested on hERG current: First, the hERG current measured in extracellular fluid containing 0.1% DMSO was used as the detection baseline. […] By waiting for about 5 minutes after the completion of each perfusion, the compound was allowed to fully act on the cells, and the hERG currents were simultaneously recorded. After the currents to be recorded became stable, the last 5 hERG current values were recorded, and the average value thereof was taken as the final current value thereof at a specific concentration. […] In addition, the positive compound dofelide was detected with the same patch clamp system both before and after the completion of the test compound experiment to ensure the reliability and sensitivity of the entire detection system.
1) After perfusion of blank solvent or compound gradient solution, the average value of 5 continuous current values obtained in a stable state is calculated as “tail current valueblank” and “tail current valuecompound”, respectively.
2) The percent current inhibition was calculated by the following formula. […]

[2] = Plasma protein binding rate, equilibrium dialysis, human plasma; format: in vitro ADME; settings: pH 7.4, 6 hours dialysis
Method: (§1) The protein binding rate of the compounds of the present invention in the plasma of five species (human, monkey, dog, rat and mouse) was determined by the following test method.
(§2) • 1. Human plasma (BioIVT), beagle dog plasma (BioIVT), SD rat plasma (BioIVT), CD-1 mouse plasma (BioIVT); • 2. 96-well equilibrium dialysis plate (HTDialysis LLC, Gales Ferry, CT, HTD96B), equilibrium dialysis membrane (MWCO 12-14 K, #1101); • 3. Positive control compound warfarin; • 4. ABI QTrap 5500 liquid chromatography-mass spectrometry.
(§3) 1. Preparation of a buffer with a concentration of 100 mM sodium phosphate and 150 mM NaCl: an alkaline solution with a concentration of 14.2 g/L Na2HPO4 and 8.77 g/L NaCl was prepared with ultrapure water, and an acidic solution with a concentration of 12.0 g/L NaH2PO4 and 8.77 g/L NaCl was prepared with ultrapure water. The alkaline solution was titrated with the acidic solution to pH 7.4 to prepare a buffer with a concentration of 100 mM sodium phosphate and 150 mM NaCl.
(§4) 2. Preparation of dialysis membrane: the dialysis membrane was soaked in ultrapure water for 60 minutes to separate the membrane into two pieces, then soaked in 20% ethanol for 20 minutes, and finally soaked in the buffer used for dialysis for 20 minutes.
(§5) 3. Preparation of plasma: the frozen plasma was quickly thawed at room temperature, then the plasma was centrifuged at 3,220 g at 4° C. for 10 min to remove clots, and the supernatant was collected into a new centrifuge tube. The pH of the plasma was measured and recorded, and the plasma with pH of 7-8 was used.
(§6) 3. Preparation of compound-containing plasma samples: 10 mM stock solution of compounds of the present invention or positive control compounds were diluted with DMSO to obtain 200 µM working solution. […]
(§7) The peak areas of the compounds on the buffer side and the plasma side were determined. […]
(§8) All the data was calculated by the Microsoft Excel software. The plasma protein binding rate values of the compounds of the present invention were calculated.

[3] = Plasma protein binding rate, equilibrium dialysis, rat plasma; format: in vitro ADME; settings: pH 7.4, SD rat plasma, 6 hours dialysis
Method: as §1, §2, §3, §4, §5, §6, §7, §8

Sequence of voltage-gated potassium ion channel hERG (Q12809 whole entry): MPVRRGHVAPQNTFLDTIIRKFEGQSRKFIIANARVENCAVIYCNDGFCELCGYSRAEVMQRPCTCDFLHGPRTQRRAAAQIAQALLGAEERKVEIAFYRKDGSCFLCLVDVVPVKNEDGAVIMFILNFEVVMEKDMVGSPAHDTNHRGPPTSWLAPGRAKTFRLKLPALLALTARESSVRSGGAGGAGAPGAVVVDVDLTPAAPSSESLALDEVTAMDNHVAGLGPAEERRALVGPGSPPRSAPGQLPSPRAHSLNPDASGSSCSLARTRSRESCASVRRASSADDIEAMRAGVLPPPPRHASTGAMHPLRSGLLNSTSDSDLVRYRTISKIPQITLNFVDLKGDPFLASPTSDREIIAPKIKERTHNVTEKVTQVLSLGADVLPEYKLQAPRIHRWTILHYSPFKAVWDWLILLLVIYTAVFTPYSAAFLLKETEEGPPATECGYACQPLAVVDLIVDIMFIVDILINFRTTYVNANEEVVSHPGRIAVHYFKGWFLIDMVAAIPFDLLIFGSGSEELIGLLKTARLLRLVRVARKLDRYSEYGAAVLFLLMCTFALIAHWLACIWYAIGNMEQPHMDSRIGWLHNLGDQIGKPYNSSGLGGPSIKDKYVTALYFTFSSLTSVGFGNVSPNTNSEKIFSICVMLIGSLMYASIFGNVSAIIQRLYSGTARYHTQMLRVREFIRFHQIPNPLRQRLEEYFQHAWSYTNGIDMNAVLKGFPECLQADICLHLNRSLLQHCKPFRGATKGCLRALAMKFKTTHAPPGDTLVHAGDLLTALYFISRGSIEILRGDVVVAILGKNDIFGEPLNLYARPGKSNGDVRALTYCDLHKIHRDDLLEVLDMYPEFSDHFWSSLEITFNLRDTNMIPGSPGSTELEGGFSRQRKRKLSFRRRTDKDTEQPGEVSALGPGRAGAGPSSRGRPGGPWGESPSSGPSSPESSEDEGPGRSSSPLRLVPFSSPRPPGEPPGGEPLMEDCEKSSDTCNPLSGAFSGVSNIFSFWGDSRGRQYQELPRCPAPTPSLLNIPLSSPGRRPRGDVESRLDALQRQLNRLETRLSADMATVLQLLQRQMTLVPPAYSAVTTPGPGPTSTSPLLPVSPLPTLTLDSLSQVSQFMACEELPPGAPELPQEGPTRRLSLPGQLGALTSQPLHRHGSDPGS

Compound | IC50 [1] [µM] | fraction unbound at 6 h, 1 µM [2] | fraction unbound at 6 h, 1 µM [3]
C[C@@H]1Cc2c([nH]c3ccccc23)C(c2c(F)cc(N[C@H]3CCN(CCCF)C3)cc2F)N1CC(F)(F)F (stereo in doubt) [Example 4, (S)-N-(3,5-difluoro-4-((1S,3R)-3-methyl-2-(2,2,2-trifluoroethyl)-2,3,4,9-tetrahydro-1H-pyridino[3,4-b]indol-1-yl)phenyl)-1-(3-fluoropropyl)pyrrolidin-3-amine] | 3.7 | 0.002 | 0.002
C[C@@H]1Cc2c([nH]c3ccccc23)C(c2c(F)cc(N[C@H]3CCN(CCCF)C3)cc2F)N1CC(F)(F)CO (stereo in doubt) [Example 7, 3-((1S,3R)-1-(2,6-difluoro-4-(((S)-1-(3-fluoropropyl)pyrrolidin-3-yl)amino)phenyl)-3-methyl-3,4-dihydro-1H-pyridino [3,4-b]indole-2(9H)-yl)-2,2-difluoropropane-1-ol] | 8.4 | 0.005 | 0.015
C[C@@H]1Cc2c([nH]c3ccccc23)[C@@H](c2ccc(N[C@H]3CCN(CCCF)C3)cn2)N1CC(F)(F)F [Example 3, N-((S)-1-(3-fluoropropyl)pyrrolidin-3-yl)-6-((1S,3R)-3-methyl-2-(2,2,2-trifluoroethyl)-2,3,4,9-tetrahydro-1H-pyridino[3,4-b]indol-1-yl)pyridine-3-amine] | 10 | 0.012 | 0.029

— patent US20230348459A1, “PYRROLIDINE COMPOUND AND USE THEREOF” (SIMCERE PHARMACEUTICAL CO., LTD., priority 2020, published 2023)
